Measurements as given in PubChem BioAssay (NCI).
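In this assay, cells in 96-well plates receive the compound at five concentrations for 48 hours. Endpoints are linearly interpolated between the surrounding concentrations. Here, GI50 denotes the concentration required for 50% inhibition of growth. Definition used: TGI = concentration required for complete inhibition of growth.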

Legend:
Test in all cases: NCI-60 cell line screen, 48 h
NCI-H460 lung = tested on: NCI-H460 lung
HCC-2998 colon = tested on: HCC-2998 colon
DU-145 prostate = tested on: DU-145 prostate
CCRF-CEM leukemia = tested on: CCRF-CEM leukemia
NCI-H522 lung = tested on: NCI-H522 lung
T-47D breast = tested on: T-47D breast
SK-OV-3 ovarian = tested on: SK-OV-3 ovarian
IGROV1 ovarian = tested on: IGROV1 ovarian
NCI-H226 lung = tested on: NCI-H226 lung
MALME-3M melanoma = tested on: MALME-3M melanoma

Compound | GI50 (NCI-H460 lung) [µM] | TGI (NCI-H460 lung) [µM] | GI50 (HCC-2998 colon) [µM] | TGI (HCC-2998 colon) [µM] | GI50 (DU-145 prostate) [µM] | TGI (DU-145 prostate) [µM] | GI50 (CCRF-CEM leukemia) [µM] | TGI (CCRF-CEM leukemia) [µM] | GI50 (NCI-H522 lung) [µM] | TGI (NCI-H522 lung) [µM] | GI50 (T-47D breast) [µM] | TGI (T-47D breast) [µM] | GI50 (SK-OV-3 ovarian) [µM] | TGI (SK-OV-3 ovarian) [µM] | GI50 (IGROV1 ovarian) [µM] | TGI (IGROV1 ovarian) [µM] | GI50 (NCI-H226 lung) [µM] | TGI (NCI-H226 lung) [µM] | GI50 (MALME-3M melanoma) [µM] | TGI (MALME-3M melanoma) [µM]
CC(=O)NCc1cccc(C#Cc2cncnc2Nc2ccc(OCc3cccc(F)c3)c(Cl)c2)c1 | 10.6 | > 25 | 9.04 | > 25 | 10.1 | > 25 | 13.4 | > 25 | 6.55 | > 22.4 | 9.68 | > 25 | > 12.9 | > 25 | 5.51 | > 25 | > 21.1 | > 25 | 19.4 | > 25
NS(=O)(=O)c1ccc(-c2cc3ccncc3cc2OCc2ccccc2)cc1 | 9.77 | > 25 | > 25 | > 25 | 16.4 | > 25 | > 17.7 | > 25 | > 17 | > 25 | > 19.4 | > 25 | 11.1 | > 19.3 | > 25 | > 25 | > 19.9 | > 25 | 22.8 | > 25
COC1=C(OC)C(=O)C(SC/C=C(\C)CCCC(C)CCCC(C)CCCC(C)C)=CC1=O (stereo not given) | 0.95 | > 32.7 | 2.37 | > 100 | 4.27 | > 100 | 1.19 | > 100 | 0.635 | > 38.1 | 0.478 | 12.1 | 2.47 | > 91.6 | 2.94 | > 29.2 | 2.75 | > 100 | 0.513 | 
O=C(O)c1cccc(C(=O)O)c1S(=O)Cc1ccccc1 (stereo not given) |  | > 100 |  | > 100 |  | > 100 |  |  |  | > 100 |  | > 100 |  | > 100 |  | > 100 |  | > 100 |  | > 100
O=C1c2sccc2-c2cccc3cccc1c23 (tested in a mixture with another compound) |  | 82.6 |  |  |  | 7.03 |  | 12.8 |  | 57.1 |  | 28.2 |  | > 100 |  | 50.2 |  | 33.9 |  | 9.06
C(=N/N(Cc1ccccc1)Cc1ccccc1)/c1ccccc1 | > 100 | > 100 | > 100 | > 100 | > 100 | > 100 |  |  | > 100 | > 100 | 72.4 | > 100 | > 100 | > 100 | > 100 | > 100 | > 100 | > 100 | 41.1 | > 100
COc1ccc(N(CC(=O)NCCC[Te]c2ccccc2)C(=O)CNC(=O)OC(C)(C)C)cc1 | 0.45 | 1.85 | 2.6 | 6.6 | 2.91 | 7.6 |  |  | 2.56 | 10.6 | 11 | 40.9 | 2.34 | 4.83 | 2.24 | 5.42 | 2.29 | 5.36 | 15.7 | 32.8
O=C(O)CCC(=O)c1ccc2sc3ccccc3c2c1 |  | > 100 |  |  |  | > 100 |  |  |  | > 100 |  | > 100 |  | > 100 |  | > 100 |  | > 100 |  | > 100
C=CCN1CC(=O)N2[C@@H](Cc3ccc(O)cc3F)C(=O)N(Cc3cccc(N4CC(N5CCN(CC)CC5)C4)n3)C[C@@H]2N1C(=O)NCc1ccccc1 | 0.038 | > 100 | 0.0687 | > 100 | 0.0844 | > 100 | 0.0398 | > 100 | 0.0284 |  | 0.0339 | > 100 | 0.0345 | 0.244 |  |  | 0.0461 | > 100 | 0.0292 | 0.211
C[N+](C)(C)CC1CCCC1=O (stereo not given) |  | 38.9 |  | 29.9 |  | 0.0951 |  |  |  | 0.0171 |  | 0.448 |  | 30.4 |  | 32.3 |  | 34.6 |  | 1.61
COC1C(O)C(CO)OC(OC2C(O)COC(OC3C(C)OC(OC4C(O[C@H]5CC[C@@]6(C)C(CC=C7[C@H]6CCC68C(=O)O[C@@](C)(CCCC(C)C)[C@H]6[C@@H](OC(C)=O)C[C@@]78C)C5(C)C)OCC(OS(=O)(=O)O)C4O)C(OC4OCC(O)C(O)C4O)C3O)C2O)C1O (stereo not given in full) | 0.315 | 1.45 | 0.13 | 0.391 | 0.209 | 0.656 | 0.225 | 0.775 | 0.194 | 0.497 | 0.2 | 0.529 |  |  | 0.178 | 0.499 | 0.192 | 0.484 | 0.242 | 0.671
